{
  "source": "paper PMC6166404",
  "about": "(Journal of medicinal chemistry, 2018)",
  "key": {"Mtb H37Rv (ATCC 27294) [1]": {"tested_on": "Mtb H37Rv (ATCC 27294)", "settings": "7H9/ADC/Tween medium, no guanine, 1 week; cited from earlier work"}, "H37Rv": {"tested_on": "H37Rv", "format": "cell-based", "settings": "addition of ATc"}, "Mtb H37Rv (ATCC 27294) [2]": {"tested_on": "Mtb H37Rv (ATCC 27294)", "format": "cell-based", "settings": "for effect of guanine on MIC: presence of guanine (200 μM); for antibacterial activity over two weeks: two weeks in culture"}, "HepG2 cells": {"tested_on": "HepG2 cells", "settings": "24 h; for cytotoxicity (in words) / LD50: LDH release; for cytotoxicity (in words): up to 25 μM; for cytotoxicity, lactate dehydrogenase release: 25 μM, range stated for the three compounds together"}, "human GMPR2": {"target": "T1, human GMPR2 (Homo sapiens, UniProt Q9P2T1)", "T1 sequence (Q9P2T1 1-348)": "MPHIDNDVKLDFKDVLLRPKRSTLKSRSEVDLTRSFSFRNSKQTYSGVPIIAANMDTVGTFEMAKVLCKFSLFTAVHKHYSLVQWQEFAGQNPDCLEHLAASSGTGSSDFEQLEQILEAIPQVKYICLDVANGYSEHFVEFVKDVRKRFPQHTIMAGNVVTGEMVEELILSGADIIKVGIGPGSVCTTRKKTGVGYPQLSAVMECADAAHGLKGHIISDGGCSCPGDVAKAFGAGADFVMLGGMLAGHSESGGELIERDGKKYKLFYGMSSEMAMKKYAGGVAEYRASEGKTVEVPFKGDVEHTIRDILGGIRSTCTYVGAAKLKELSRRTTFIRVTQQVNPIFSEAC", "test": "biochemical"}, "[3]": {"settings": "2 h"}, "Hela cells": {"tested_on": "Hela cells", "settings": "25 μM, LDH release"}, "MCF7 cells": {"tested_on": "MCF7 cells", "settings": "25 μM, LDH release"}, "HEK293T cells": {"tested_on": "HEK293T cells", "settings": "25 μM, LDH release"}, "human IMPDH2": {"target": "human IMPDH2 (Homo sapiens, UniProt P12268)", "test": "biochemical"}},
  "note": "Where two headings read alike, the source gives them in different places.",
  "data": [
    {"molecule": "COc1ccc(OC(C)C(=O)Nc2ccc3oc(-c4ccncc4)nc3c2)cc1", "note": "(stereo not shown) [Compound 1, reference compound]", "values": [
      {"measurement": "7H9/ADC/Tween MIC −Gua", "setting": "Mtb H37Rv (ATCC 27294) [1]", "value": "10 ± 2 (3) μM"},
      {"measurement": "effect of ATc on antibacterial activity against the wild-type strain", "setting": "H37Rv", "value": "not affected"}
    ]},
    {"molecule": "COc1ccc(-c2nc3cc(NC(=O)[C@H](C)Oc4cccc(Cl)c4Cl)ccc3o2)cn1", "note": "[Compound 8c, (S)-2-(2,3-dichlorophenoxy)-N-(2-(6-methoxypyridin-3-yl)benzo[d]oxazol-5-yl)propanamide]", "values": [
      {"measurement": "effect of guanine on MIC", "setting": "Mtb H37Rv (ATCC 27294) [2]", "value": "increased in the presence of guanine in 7H9/ADC/Tween medium but not in GAST/Fe"}
    ]},
    {"molecule": "C[C@H](Oc1cccc(F)c1F)C(=O)Nc1ccc2oc(-c3ccncc3)nc2c1", "note": "[Compound 8l, (S)-2-(2,3-Difluorophenoxy)-N-(2-(pyridin-4-yl)benzo[d]oxazol-5-yl)propanamide]", "values": [
      {"measurement": "cytotoxicity (in words)", "setting": "HepG2 cells", "value": "Only compounds 8p, 8u and 17b displayed measurable cytotoxicity"},
      {"measurement": "antibacterial activity over two weeks", "setting": "Mtb H37Rv (ATCC 27294) [2]; Mtb H37Rv", "value": "retained antibacterial activity"}
    ]},
    {"molecule": "C[C@H](Oc1cccc(F)c1F)C(=O)Nc1ccc2oc(-c3ccc(O)cc3)nc2c1", "note": "[Compound 8n, (S)-2-(2,3-Difluorophenoxy)-N-(2-(4-hydroxyphenyl)benzo[d]oxazol-5-yl)propanamide]", "values": [
      {"measurement": "effect of guanine on MIC", "setting": "Mtb H37Rv (ATCC 27294) [2]", "value": "increased substantially in the presence of guanine in both media"}
    ]},
    {"molecule": "C[C@H](Oc1cccc(F)c1F)C(=O)Nc1ccc2oc(-c3ccc(C#N)cc3)nc2c1", "note": "[Compound 8p, (S)-N-(2-(4-Cyanophenyl)benzo[d]oxazol-5-yl)-2-(2,3-difluorophenoxy)propanamide]", "values": [
      {"measurement": "cytotoxicity, lactate dehydrogenase release", "setting": "HepG2 cells", "value": "9–13%"},
      {"measurement": "LD50", "setting": "HepG2 cells", "value": "> 25", "unit": "µM"}
    ]},
    {"molecule": "COc1ccc(-c2nc3cc(NC(=O)[C@H](C)Oc4ccccc4C#N)ccc3o2)cc1", "note": "[Compound 8u, (S)-2-(2-Cyanophenoxy)-N-(2-(4-methoxyphenyl)benzo[d]oxazol-5-yl)propanamide]", "values": [
      {"measurement": "cytotoxicity, lactate dehydrogenase release", "setting": "HepG2 cells", "value": "9–13%"},
      {"measurement": "LD50", "setting": "HepG2 cells", "value": "> 25", "unit": "µM"},
      {"measurement": "antibacterial activity over two weeks", "setting": "Mtb H37Rv (ATCC 27294) [2]; Mtb H37Rv", "value": "retained antibacterial activity"}
    ]},
    {"molecule": "COc1ccc(-c2nc3cc(NC[C@H](C)Oc4cccc(Cl)c4Cl)ccc3o2)cc1", "note": "[Compound 11, (S)-N-(2-(2,3-Dichlorophenoxy)propyl)-2-(4-methoxyphenyl)benzo[d]oxazol-5-amine]", "values": [
      {"measurement": "Ki", "setting": "human GMPR2", "value": "> 5", "unit": "µM"}
    ]},
    {"molecule": "C[C@H](Nc1cccc(Cl)c1Cl)C(=O)Nc1ccc2oc(-c3ccc(C#N)cc3)nc2c1", "note": "[Compound 17a, (S)-N-(2-(4-Cyanophenyl)benzo[d]oxazol-5-yl)-2-((2,3-dichlorophenyl)amino)propanamide]", "values": [
      {"measurement": "antibacterial activity over two weeks", "setting": "Mtb H37Rv (ATCC 27294) [2]; Mtb H37Rv", "value": "retained antibacterial activity"}
    ]},
    {"molecule": "C[C@H](Nc1cccc(F)c1F)C(=O)Nc1ccc2oc(-c3ccc(C#N)cc3)nc2c1", "note": "[Compound 17b, (S)-N-(2-(4-Cyanophenyl)benzo[d]oxazol-5-yl)-2-((2,3-difluorophenyl)amino)propanamide]", "values": [
      {"measurement": "stability in mouse plasma", "setting": "[3]", "value": "No decomposition"},
      {"measurement": "cytotoxicity", "setting": "Hela cells", "value": "less than 10%"},
      {"measurement": "cytotoxicity, lactate dehydrogenase release", "setting": "HepG2 cells", "value": "9–13%"},
      {"measurement": "LD50", "setting": "HepG2 cells", "value": "> 25", "unit": "µM"},
      {"measurement": "effect of ATc on antibacterial activity against the wild-type strain", "setting": "H37Rv", "value": "not affected"},
      {"measurement": "antibacterial activity over two weeks", "setting": "Mtb H37Rv (ATCC 27294) [2]; Mtb H37Rv", "value": "retained antibacterial activity"},
      {"measurement": "effect of guanine on MIC", "setting": "Mtb H37Rv (ATCC 27294) [2]", "value": "does not change"},
      {"measurement": "cytotoxicity", "setting": "MCF7 cells", "value": "less than 10%"},
      {"measurement": "cytotoxicity", "setting": "HEK293T cells", "value": "less than 10%"}
    ]},
    {"molecule": "CCOC(=O)COc1ccc(-c2nc3cc(NC(=O)[C@H](C)Oc4cccc(Cl)c4Cl)ccc3o2)cc1", "note": "[Compound 18a, Ethyl (S)-2-(4-(5-(2-(2,3-dichlorophenoxy)propanamido)benzo[d]oxazol-2-yl)phenoxy)acetate]", "values": [
      {"measurement": "cytotoxicity (in words)", "setting": "HepG2 cells", "value": "Only compounds 8p, 8u and 17b displayed measurable cytotoxicity"},
      {"measurement": "effect of ATc on antibacterial activity against the wild-type strain", "setting": "H37Rv", "value": "not affected"},
      {"measurement": "antibacterial activity over two weeks", "setting": "Mtb H37Rv (ATCC 27294) [2]; Mtb H37Rv", "value": "retained antibacterial activity"}
    ]},
    {"molecule": "C[C@H](Oc1cccc(Cl)c1Cl)C(=O)Nc1ccc2oc(-c3ccc(OCC(=O)O)cc3)nc2c1", "note": "[Compound 19a, (S)-2-(4-(5-(2-(2,3-Dichlorophenoxy)propanamido)benzo[d]oxazol-2-yl)phenoxy)acetic acid]", "values": [
      {"measurement": "cytotoxicity (in words)", "setting": "HepG2 cells", "value": "no cytotoxicity was observed"}
    ]},
    {"molecule": "C#CCOC(=O)COc1ccc(-c2nc3cc(NC(=O)[C@H](C)Oc4cccc(Cl)c4Cl)ccc3o2)cc1", "note": "[Compound 20, Prop-2-yn-1-yl (S)-2-(4-(5-(2-(2,3-dichlorophenoxy)propanamido)benzo[d]oxa-zol-2-yl)phenoxy)acetate]", "values": [
      {"measurement": "cytotoxicity (in words)", "setting": "HepG2 cells", "value": "Only compounds 8p, 8u and 17b displayed measurable cytotoxicity"},
      {"measurement": "antibacterial activity over two weeks", "setting": "Mtb H37Rv (ATCC 27294) [2]; Mtb H37Rv", "value": "retained antibacterial activity"}
    ]},
    {"molecule": "C[C@H](Oc1cccc(Cl)c1Cl)C(=O)Nc1ccc2oc(-c3ccc(C(=O)NO)cc3)nc2c1", "note": "[Compound 21, (S)-4-(5-(2-(2,3-Dichlorophenoxy)propanamido)benzo[d]oxazol-2-yl)-N-hydroxybenzamide]", "values": [
      {"measurement": "antibacterial activity over two weeks", "setting": "Mtb H37Rv (ATCC 27294) [2]; Mtb H37Rv", "value": "retained activity"}
    ]},
    {"molecule": "C[C@H](Oc1cccc(Cl)c1Cl)C(=O)Nc1ccc2oc(-c3ccc(C(=O)O)cc3)nc2c1", "note": "[Compound 22, (S)-4-(5-(2-(2,3-Dichlorophenoxy)propanamido)benzo[d]oxazol-2-yl)benzoic acid]", "values": [
      {"measurement": "effect of ATc on antibacterial activity against the wild-type strain", "setting": "H37Rv", "value": "not affected"},
      {"measurement": "antibacterial activity over two weeks", "setting": "Mtb H37Rv (ATCC 27294) [2]; Mtb H37Rv", "value": "retained activity"}
    ]},
    {"molecule": "C[C@H](Oc1cccc(Cl)c1Cl)C(=O)Nc1ccc2oc(-c3ccc(-c4nnn[nH]4)cc3)nc2c1", "note": "[Compound 27, (S)-N-(2-(4-(1H-Tetrazol-5-yl)phenyl)benzo[d]oxazol-5-yl)-2-(2,3-dichlorophenoxy)propanamide]", "values": [
      {"measurement": "Ki", "setting": "human GMPR2", "value": "> 5", "unit": "µM"},
      {"measurement": "Ki", "setting": "human IMPDH2", "value": "> 5", "unit": "µM"}
    ]},
    {"molecule": "(S)-2-(2,3-Dichlorophenoxy)-N-(2-(2-methoxypyridin-4-yl)benzo[d]oxazol-5-yl)propanamide [Compound 8b]", "values": [
      {"measurement": "7H9/ADC/Tween MIC +Gua", "setting": "Mtb H37Rv (ATCC 27294) [2]; Mtb H37Rv, 7H9/ADC/Tween medium, 200 μM guanine, 1 week", "value": "14 ± 5 (2) μM"},
      {"measurement": "7H9/ADC/Tween MIC −Gua", "setting": "Mtb H37Rv (ATCC 27294) [2]; Mtb H37Rv, 7H9/ADC/Tween medium, no guanine, 1 week", "value": "3.5 ± 1.2 (2) μM"},
      {"measurement": "GAST/Fe MIC +Gua", "setting": "Mtb H37Rv (ATCC 27294) [2]; Mtb H37Rv, GAST/Fe medium, 200 μM guanine, 1 week", "value": "6.3 ± 0.0 (2) μM"},
      {"measurement": "GAST/Fe MIC −Gua", "setting": "Mtb H37Rv (ATCC 27294) [2]; Mtb H37Rv, GAST/Fe medium, no guanine, 1 week", "value": "6.3 ± 0.0 (2) μM"}
    ]}
  ]
}
